From the OligoGym collection
Oligonucleotides are given in HELM: sugar(base)linkage, 5' to 3'; d 2'-deoxyribose, r ribose, m 2'-O-methylribose, p phosphate. ss, as = sense and antisense strand

Each substance was assayed against UBE2N (assay: reporter assay of Huesken 2005). Settings: siRNA.
Further: test concentration or dose not given here.

Substance	normalised inhibition (eCFP-eYFP dual reporter) [%]
RNA1{r(C)p.r(U)p.r(A)p.r(G)p.r(A)p.r(U)p.r(A)p.r(U)p.r(U)p.r(U)p.r(U)p.r(G)p.r(A)p.r(A)p.r(A)p.r(G)p.r(A)p.r(U)p.r(A)p.d(T)p.d(T)}|RNA2{r(U)p.r(A)p.r(U)p.r(C)p.r(U)p.r(U)p.r(U)p.r(C)p.r(A)p.r(A)p.r(A)p.r(A)p.r(U)p.r(A)p.r(U)p.r(C)p.r(U)p.r(A)p.r(G)p.d(A)p.d(C)}$$$RNA1{StrandType:ss}|RNA2{StrandType:as}$	85.6
RNA1{r(C)p.r(U)p.r(C)p.r(C)p.r(C)p.r(A)p.r(A)p.r(U)p.r(C)p.r(C)p.r(A)p.r(G)p.r(A)p.r(U)p.r(G)p.r(A)p.r(U)p.r(C)p.r(C)p.d(T)p.d(T)}|RNA2{r(G)p.r(G)p.r(A)p.r(U)p.r(C)p.r(A)p.r(U)p.r(C)p.r(U)p.r(G)p.r(G)p.r(A)p.r(U)p.r(U)p.r(G)p.r(G)p.r(G)p.r(A)p.r(G)p.d(C)p.d(A)}$$$RNA1{StrandType:ss}|RNA2{StrandType:as}$	58.7
RNA1{r(C)p.r(U)p.r(U)p.r(G)p.r(A)p.r(A)p.r(C)p.r(U)p.r(A)p.r(U)p.r(U)p.r(C)p.r(C)p.r(U)p.r(U)p.r(C)p.r(C)p.r(A)p.r(G)p.d(T)p.d(T)}|RNA2{r(C)p.r(U)p.r(G)p.r(G)p.r(A)p.r(A)p.r(G)p.r(G)p.r(A)p.r(A)p.r(U)p.r(A)p.r(G)p.r(U)p.r(U)p.r(C)p.r(A)p.r(A)p.r(G)p.d(T)p.d(T)}$$$RNA1{StrandType:ss}|RNA2{StrandType:as}$	84.8
RNA1{r(C)p.r(U)p.r(U)p.r(U)p.r(G)p.r(A)p.r(G)p.r(G)p.r(G)p.r(A)p.r(G)p.r(G)p.r(G)p.r(A)p.r(C)p.r(U)p.r(U)p.r(U)p.r(U)p.d(T)p.d(T)}|RNA2{r(A)p.r(A)p.r(A)p.r(A)p.r(G)p.r(U)p.r(C)p.r(C)p.r(C)p.r(U)p.r(C)p.r(C)p.r(C)p.r(U)p.r(C)p.r(A)p.r(A)p.r(A)p.r(G)p.d(G)p.d(G)}$$$RNA1{StrandType:ss}|RNA2{StrandType:as}$	70.6
RNA1{r(G)p.r(A)p.r(A)p.r(A)p.r(C)p.r(A)p.r(G)p.r(C)p.r(U)p.r(A)p.r(G)p.r(A)p.r(G)p.r(C)p.r(A)p.r(U)p.r(G)p.r(G)p.r(A)p.d(T)p.d(T)}|RNA2{r(U)p.r(C)p.r(C)p.r(A)p.r(U)p.r(G)p.r(C)p.r(U)p.r(C)p.r(U)p.r(A)p.r(G)p.r(C)p.r(U)p.r(G)p.r(U)p.r(U)p.r(U)p.r(C)p.d(T)p.d(A)}$$$RNA1{StrandType:ss}|RNA2{StrandType:as}$	100
RNA1{r(G)p.r(A)p.r(A)p.r(C)p.r(C)p.r(A)p.r(G)p.r(U)p.r(U)p.r(C)p.r(C)p.r(U)p.r(G)p.r(G)p.r(C)p.r(A)p.r(U)p.r(C)p.r(A)p.d(T)p.d(T)}|RNA2{r(U)p.r(G)p.r(A)p.r(U)p.r(G)p.r(C)p.r(C)p.r(A)p.r(G)p.r(G)p.r(A)p.r(A)p.r(C)p.r(U)p.r(G)p.r(G)p.r(U)p.r(U)p.r(C)p.d(T)p.d(G)}$$$RNA1{StrandType:ss}|RNA2{StrandType:as}$	36
RNA1{r(G)p.r(A)p.r(A)p.r(C)p.r(U)p.r(A)p.r(U)p.r(U)p.r(C)p.r(C)p.r(U)p.r(U)p.r(C)p.r(C)p.r(A)p.r(G)p.r(A)p.r(A)p.r(G)p.d(T)p.d(T)}|RNA2{r(C)p.r(U)p.r(U)p.r(C)p.r(U)p.r(G)p.r(G)p.r(A)p.r(A)p.r(G)p.r(G)p.r(A)p.r(A)p.r(U)p.r(A)p.r(G)p.r(U)p.r(U)p.r(C)p.d(A)p.d(A)}$$$RNA1{StrandType:ss}|RNA2{StrandType:as}$	87.5
RNA1{r(G)p.r(A)p.r(A)p.r(G)p.r(A)p.r(C)p.r(C)p.r(A)p.r(A)p.r(C)p.r(G)p.r(A)p.r(A)p.r(G)p.r(C)p.r(C)p.r(C)p.r(A)p.r(A)p.d(T)p.d(T)}|RNA2{r(U)p.r(U)p.r(G)p.r(G)p.r(G)p.r(C)p.r(U)p.r(U)p.r(C)p.r(G)p.r(U)p.r(U)p.r(G)p.r(G)p.r(U)p.r(C)p.r(U)p.r(U)p.r(C)p.d(C)p.d(A)}$$$RNA1{StrandType:ss}|RNA2{StrandType:as}$	85.4
RNA1{r(G)p.r(A)p.r(A)p.r(G)p.r(C)p.r(C)p.r(C)p.r(A)p.r(A)p.r(G)p.r(C)p.r(C)p.r(A)p.r(U)p.r(A)p.r(G)p.r(A)p.r(A)p.r(A)p.d(T)p.d(T)}|RNA2{r(U)p.r(U)p.r(U)p.r(C)p.r(U)p.r(A)p.r(U)p.r(G)p.r(G)p.r(C)p.r(U)p.r(U)p.r(G)p.r(G)p.r(G)p.r(C)p.r(U)p.r(U)p.r(C)p.d(G)p.d(T)}$$$RNA1{StrandType:ss}|RNA2{StrandType:as}$	90.3
RNA1{r(G)p.r(A)p.r(U)p.r(C)p.r(C)p.r(A)p.r(U)p.r(U)p.r(A)p.r(G)p.r(C)p.r(A)p.r(A)p.r(A)p.r(U)p.r(G)p.r(A)p.r(U)p.r(G)p.d(T)p.d(T)}|RNA2{r(C)p.r(A)p.r(U)p.r(C)p.r(A)p.r(U)p.r(U)p.r(U)p.r(G)p.r(C)p.r(U)p.r(A)p.r(A)p.r(U)p.r(G)p.r(G)p.r(A)p.r(U)p.r(C)p.d(A)p.d(T)}$$$RNA1{StrandType:ss}|RNA2{StrandType:as}$	61.3
RNA1{r(G)p.r(C)p.r(A)p.r(A)p.r(A)p.r(U)p.r(G)p.r(A)p.r(U)p.r(G)p.r(U)p.r(A)p.r(G)p.r(C)p.r(G)p.r(G)p.r(A)p.r(G)p.r(C)p.d(T)p.d(T)}|RNA2{r(G)p.r(C)p.r(U)p.r(C)p.r(C)p.r(G)p.r(C)p.r(U)p.r(A)p.r(C)p.r(A)p.r(U)p.r(C)p.r(A)p.r(U)p.r(U)p.r(U)p.r(G)p.r(C)p.d(T)p.d(A)}$$$RNA1{StrandType:ss}|RNA2{StrandType:as}$	49.8
RNA1{r(G)p.r(C)p.r(A)p.r(G)p.r(A)p.r(U)p.r(C)p.r(C)p.r(G)p.r(C)p.r(A)p.r(C)p.r(A)p.r(G)p.r(U)p.r(U)p.r(C)p.r(U)p.r(G)p.d(T)p.d(T)}|RNA2{r(C)p.r(A)p.r(G)p.r(A)p.r(A)p.r(C)p.r(U)p.r(G)p.r(U)p.r(G)p.r(C)p.r(G)p.r(G)p.r(A)p.r(U)p.r(C)p.r(U)p.r(G)p.r(C)p.d(A)p.d(G)}$$$RNA1{StrandType:ss}|RNA2{StrandType:as}$	86.3
RNA1{r(G)p.r(C)p.r(C)p.r(G)p.r(A)p.r(A)p.r(C)p.r(C)p.r(A)p.r(G)p.r(A)p.r(U)p.r(G)p.r(A)p.r(G)p.r(A)p.r(G)p.r(C)p.r(A)p.d(T)p.d(T)}|RNA2{r(U)p.r(G)p.r(C)p.r(U)p.r(C)p.r(U)p.r(C)p.r(A)p.r(U)p.r(C)p.r(U)p.r(G)p.r(G)p.r(U)p.r(U)p.r(C)p.r(G)p.r(G)p.r(C)p.d(T)p.d(T)}$$$RNA1{StrandType:ss}|RNA2{StrandType:as}$	82.6
RNA1{r(G)p.r(G)p.r(A)p.r(C)p.r(U)p.r(U)p.r(U)p.r(U)p.r(A)p.r(A)p.r(A)p.r(C)p.r(U)p.r(U)p.r(G)p.r(A)p.r(A)p.r(C)p.r(U)p.d(T)p.d(T)}|RNA2{r(A)p.r(G)p.r(U)p.r(U)p.r(C)p.r(A)p.r(A)p.r(G)p.r(U)p.r(U)p.r(U)p.r(A)p.r(A)p.r(A)p.r(A)p.r(G)p.r(U)p.r(C)p.r(C)p.d(C)p.d(T)}$$$RNA1{StrandType:ss}|RNA2{StrandType:as}$	87.2
RNA1{r(G)p.r(G)p.r(U)p.r(C)p.r(C)p.r(C)p.r(C)p.r(A)p.r(G)p.r(C)p.r(A)p.r(C)p.r(U)p.r(G)p.r(C)p.r(A)p.r(G)p.r(A)p.r(U)p.d(T)p.d(T)}|RNA2{r(A)p.r(U)p.r(C)p.r(U)p.r(G)p.r(C)p.r(A)p.r(G)p.r(U)p.r(G)p.r(C)p.r(U)p.r(G)p.r(G)p.r(G)p.r(G)p.r(A)p.r(C)p.r(C)p.d(A)p.d(C)}$$$RNA1{StrandType:ss}|RNA2{StrandType:as}$	62.2
RNA1{r(G)p.r(U)p.r(A)p.r(G)p.r(A)p.r(C)p.r(A)p.r(A)p.r(G)p.r(U)p.r(U)p.r(G)p.r(G)p.r(G)p.r(A)p.r(A)p.r(G)p.r(A)p.r(A)p.d(T)p.d(T)}|RNA2{r(U)p.r(U)p.r(C)p.r(U)p.r(U)p.r(C)p.r(C)p.r(C)p.r(A)p.r(A)p.r(C)p.r(U)p.r(U)p.r(G)p.r(U)p.r(C)p.r(U)p.r(A)p.r(C)p.d(A)p.d(T)}$$$RNA1{StrandType:ss}|RNA2{StrandType:as}$	94
RNA1{r(G)p.r(U)p.r(G)p.r(G)p.r(U)p.r(C)p.r(A)p.r(U)p.r(U)p.r(G)p.r(C)p.r(U)p.r(G)p.r(G)p.r(C)p.r(C)p.r(C)p.r(U)p.r(C)p.d(T)p.d(T)}|RNA2{r(G)p.r(A)p.r(G)p.r(G)p.r(G)p.r(C)p.r(C)p.r(A)p.r(G)p.r(C)p.r(A)p.r(A)p.r(U)p.r(G)p.r(A)p.r(C)p.r(C)p.r(A)p.r(C)p.d(A)p.d(T)}$$$RNA1{StrandType:ss}|RNA2{StrandType:as}$	54.1
RNA1{r(G)p.r(U)p.r(G)p.r(G)p.r(U)p.r(C)p.r(C)p.r(C)p.r(C)p.r(A)p.r(G)p.r(C)p.r(A)p.r(C)p.r(U)p.r(G)p.r(C)p.r(A)p.r(G)p.d(T)p.d(T)}|RNA2{r(C)p.r(U)p.r(G)p.r(C)p.r(A)p.r(G)p.r(U)p.r(G)p.r(C)p.r(U)p.r(G)p.r(G)p.r(G)p.r(G)p.r(A)p.r(C)p.r(C)p.r(A)p.r(C)p.d(T)p.d(T)}$$$RNA1{StrandType:ss}|RNA2{StrandType:as}$	59.4
RNA1{r(G)p.r(U)p.r(U)p.r(C)p.r(C)p.r(U)p.r(G)p.r(G)p.r(C)p.r(A)p.r(U)p.r(C)p.r(A)p.r(A)p.r(A)p.r(G)p.r(C)p.r(C)p.r(G)p.d(T)p.d(T)}|RNA2{r(C)p.r(G)p.r(G)p.r(C)p.r(U)p.r(U)p.r(U)p.r(G)p.r(A)p.r(U)p.r(G)p.r(C)p.r(C)p.r(A)p.r(G)p.r(G)p.r(A)p.r(A)p.r(C)p.d(T)p.d(G)}$$$RNA1{StrandType:ss}|RNA2{StrandType:as}$	78.2
RNA1{r(U)p.r(A)p.r(G)p.r(A)p.r(G)p.r(C)p.r(A)p.r(U)p.r(G)p.r(G)p.r(A)p.r(C)p.r(U)p.r(A)p.r(G)p.r(G)p.r(C)p.r(U)p.r(A)p.d(T)p.d(T)}|RNA2{r(U)p.r(A)p.r(G)p.r(C)p.r(C)p.r(U)p.r(A)p.r(G)p.r(U)p.r(C)p.r(C)p.r(A)p.r(U)p.r(G)p.r(C)p.r(U)p.r(C)p.r(U)p.r(A)p.d(G)p.d(C)}$$$RNA1{StrandType:ss}|RNA2{StrandType:as}$	73.8
